For this test, the target named is T1, BRM (Homo sapiens, UniProt P51531).
T1 construct: Western Blot Screen of BRM Degradation in SW1573 Cells; endogenous in cells; host or cells: SW1573 cells
The experiment in a line: BRM degradation (Dmax and DC50) in SW1573 cells, Western blot screen / In-Cell Western screen. The test is classed as cell-based. The settings on record: overnight (18-20 hours) treatment; for Dmax: read-out: Dmax (%)** (% degraded). The method, boiled down: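 Dmax and DC50 were derived from BRM levels normalised to an alpha-tubulin control, measured by chemiluminescent Western blotting of lysates or by PFA-fixed In-Cell Western on LI-COR Odyssey. SW1573 cells received compound overnight (18–20 h, 0.1% DMSO final).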
(In western blotting, separated proteins are transferred to a membrane and probed.)

Bounds are passed on as bounds.

T1 sequence (P51531 whole entry): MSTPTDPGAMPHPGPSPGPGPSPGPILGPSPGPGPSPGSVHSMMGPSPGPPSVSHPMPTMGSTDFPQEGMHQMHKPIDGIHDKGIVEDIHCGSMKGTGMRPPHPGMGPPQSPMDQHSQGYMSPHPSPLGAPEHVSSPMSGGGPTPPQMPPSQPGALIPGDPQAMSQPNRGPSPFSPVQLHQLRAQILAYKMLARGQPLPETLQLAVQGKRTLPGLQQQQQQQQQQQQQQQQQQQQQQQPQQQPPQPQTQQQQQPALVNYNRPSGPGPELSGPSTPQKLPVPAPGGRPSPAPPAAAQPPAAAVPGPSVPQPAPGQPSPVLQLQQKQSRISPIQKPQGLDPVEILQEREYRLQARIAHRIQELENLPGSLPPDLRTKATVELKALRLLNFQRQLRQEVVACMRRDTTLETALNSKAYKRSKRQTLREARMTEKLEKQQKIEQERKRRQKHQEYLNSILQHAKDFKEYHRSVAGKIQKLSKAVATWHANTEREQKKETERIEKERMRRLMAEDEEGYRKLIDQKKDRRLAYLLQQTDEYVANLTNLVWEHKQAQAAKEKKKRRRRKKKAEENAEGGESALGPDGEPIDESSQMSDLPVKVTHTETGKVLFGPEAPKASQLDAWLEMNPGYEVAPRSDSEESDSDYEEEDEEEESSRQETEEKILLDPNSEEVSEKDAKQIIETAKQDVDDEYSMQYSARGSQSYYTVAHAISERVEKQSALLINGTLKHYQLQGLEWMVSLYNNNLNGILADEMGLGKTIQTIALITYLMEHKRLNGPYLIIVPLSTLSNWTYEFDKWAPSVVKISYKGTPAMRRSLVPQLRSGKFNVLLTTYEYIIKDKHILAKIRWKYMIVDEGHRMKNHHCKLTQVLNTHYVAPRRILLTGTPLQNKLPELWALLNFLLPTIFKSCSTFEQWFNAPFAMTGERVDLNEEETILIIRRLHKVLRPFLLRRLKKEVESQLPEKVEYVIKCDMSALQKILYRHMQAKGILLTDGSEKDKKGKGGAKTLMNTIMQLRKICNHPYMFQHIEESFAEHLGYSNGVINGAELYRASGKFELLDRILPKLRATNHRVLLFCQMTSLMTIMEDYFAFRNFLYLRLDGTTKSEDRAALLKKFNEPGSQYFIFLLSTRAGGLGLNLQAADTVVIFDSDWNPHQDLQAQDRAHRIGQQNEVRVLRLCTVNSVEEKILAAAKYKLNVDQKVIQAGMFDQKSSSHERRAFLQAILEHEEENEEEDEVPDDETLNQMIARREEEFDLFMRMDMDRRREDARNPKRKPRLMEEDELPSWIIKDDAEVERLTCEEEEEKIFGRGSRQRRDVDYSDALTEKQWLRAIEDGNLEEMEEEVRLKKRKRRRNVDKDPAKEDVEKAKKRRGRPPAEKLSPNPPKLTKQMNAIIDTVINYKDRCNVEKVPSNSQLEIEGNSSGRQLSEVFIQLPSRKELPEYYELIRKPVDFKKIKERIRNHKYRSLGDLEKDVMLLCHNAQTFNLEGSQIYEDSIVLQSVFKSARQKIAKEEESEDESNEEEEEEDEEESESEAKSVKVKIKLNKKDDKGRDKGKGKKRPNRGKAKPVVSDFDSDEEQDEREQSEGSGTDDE

`CC(C)[C@@H](C(=O)N1C[C@H](O)C[C@H]1C(=O)N[C@@H](C)c1ccc(C#N)cc1)c1cc(N2CCC(OCCN3CCC(O[C@H]4C[C@H](Oc5cc(N6C7CCC6CN(c6cc(-c8ccccc8O)nnc6N)C7)ccn5)C4)CC3)CC2)no1` [Compound 153, (2S,4R)-N-[(1S)-1-(4-cyanophenyl)ethyl]-4-hydroxy-1-[(2R)-3-methyl-2-{3-[4-(2-{4-[(1r,3r)-3-[(4-{3-[3-amino-6-(2-hydroxyphenyl)pyridazin-4-yl]-3,8-diazabicyclo[3.2.1]octan-8-yl}pyridin-2-yl)oxy]cyclobutoxy]piperidin-1-yl}ethoxy)piperidin-1-yl]-1,2-oxazol-5-yl}butanoyl]pyrrolidine-2-carboxamide]: the DC50 was < 2.5 nM and the Dmax was > 75%. For `CC(C)[C@@H](C(=O)N1C[C@H](O)C[C@H]1C(=O)N[C@@H](C)c1ccc(-c2ccnn2C)cc1)c1cc(N2CCC(OC3CCN(CC4CC(N5CCC([C@@H](C)n6cc(C#Cc7cc(-c8ccccc8O)nnc7N)cn6)CC5)C4)CC3)CC2)no1` (stereo partly drawn) [Compound 110, (2S,4R)-1-[(2R)-2-{3-[4-({1-[(3-{4-[(1R)-1-(4-{2-[3-amino-6-(2-hydroxyphenyl)pyridazin-4-yl]ethynyl}-1H-pyrazol-1-yl)ethyl]piperidin-1-yl}cyclobutyl)methyl]piperidin-4-yl}oxy)piperidin-1-yl]-1,2-oxazol-5-yl}-3-methylbutanoyl]-4-hydroxy-N-[(1S)-1-[4-(1-methyl-1H-pyrazol-5-yl)phenyl]ethyl]pyrrolidine-2-carboxamide], the DC50 is < 2.5 nM and the Dmax was > 75%.

Consider `Cc1ncsc1-c1ccc([C@H](C)NC(=O)[C@@H]2C[C@@H](O)CN2C(=O)[C@@H](c2cc(N3CCC(CN4CCC5(CC4)CC(N4CCO[C@@H](C(C)(C)N6C7CCC6CN(c6cc(-c8ccccc8O)nnc6N)C7)C4)C5)CC3)no2)C(C)C)cc1` [Compound 95, (2S,4R)-1-[(2R)-2-{3-[4-({2-[(2R)-2-(2-{3-[3-amino-6-(2-hydroxyphenyl)pyridazin-4-yl]-3,8-diazabicyclo[3.2.1]octan-8-yl}propan-2-yl)morpholin-4-yl]-7-azaspiro[3.5]nonan-7-yl}methyl)piperidin-1-yl]-1,2-oxazol-5-yl}-3-methylbutanoyl]-4-hydroxy-N-[(1S)-1-[4-(4-methyl-1,3-thiazol-5-yl)phenyl]ethyl]pyrrolidine-2-carboxamide], for which the DC50 lay within 2.5 to 10 nM and the maximal degradation (Dmax) was > 75%. As to `CC(C)[C@H](C(=O)N1C[C@H](O)C[C@H]1C(=O)N[C@@H](C)c1ccc(-c2ccnn2C)cc1)c1cc(N2CCC(CN3CCC(O[C@H]4C[C@H](OC(=O)N5CCN(c6cc(-c7ccccc7O)nnc6N)CC5)C4)CC3)CC2)no1` [Compound 114, (1r,3r)-3-({1-[(1-{5-[(2S)-1-[(2S,4R)-4-hydroxy-2-{[(1S)-1-[4-(1-methyl-1H-pyrazol-5-yl)phenyl]ethyl]carbamoyl}pyrrolidin-1-yl]-3-methyl-1-oxobutan-2-yl]-1,2-oxazol-3-yl}piperidin-4-yl)methyl]piperidin-4-yl}oxy)cyclobutyl 4-[3-amino-6-(2-hydroxyphenyl)pyridazin-4-yl]piperazine-1-carboxylate], the 50% degradation concentration (DC50) is ≥ 30 nM. Turning to `Cc1ncsc1-c1ccc([C@H](C)NC(=O)[C@@H]2C[C@@H](O)CN2C(=O)[C@@H](c2cc(N3CCN(C(=O)N4CCC(O[C@H]5C[C@H](Oc6cc(N7C8CCC7CN(c7cc(-c9ccccc9O)nnc7N)C8)ccn6)C5)CC4)CC3)no2)C(C)C)cc1` [Compound 123, (2S,4R)-4-hydroxy-N-[(1S)-1-[4-(4-methyl-1,3-thiazol-5-yl)phenyl]ethyl]-1-[(2S)-3-methyl-2-[3-(4-{4-[(1r,3r)-3-[(4-{3-[3-amino-6-(2-hydroxyphenyl)pyridazin-4-yl]-3,8-diazabicyclo[3.2.1]octan-8-yl}pyridin-2-yl)oxy]cyclobutoxy]piperidine-1-carbonyl}piperazin-1-yl)-1,2-oxazol-5-yl]butanoyl]pyrrolidine-2-carboxamide], the DC50 was < 2.5 nM and the Dmax was > 75%. Take `CC(C)[C@H](C(=O)N1C[C@H](O)C[C@H]1C(=O)N[C@@H](C)c1ccc(C#N)cc1)c1cc(N2CCC(OCCN3CCC(O[C@H]4C[C@H](Oc5cc(N6C7CCC6CN(c6cc(-c8ccccc8O)nnc6N)C7)ccn5)C4)CC3)CC2)no1` [Compound 152, (2S,4R)-N-[(1S)-1-(4-cyanophenyl)ethyl]-4-hydroxy-1-[(2S)-3-methyl-2-{3-[4-(2-{4-[(1r,3r)-3-[(4-{3-[3-amino-6-(2-hydroxyphenyl)pyridazin-4-yl]-3,8-diazabicyclo[3.2.1]octan-8-yl}pyridin-2-yl)oxy]cyclobutoxy]piperidin-1-yl}ethoxy)piperidin-1-yl]-1,2-oxazol-5-yl}butanoyl]pyrrolidine-2-carboxamide]: the DC50 was ≥ 30 nM. `CC(C)[C@@H](C(=O)N1C[C@H](O)C[C@H]1C(=O)N[C@@H](C)c1ccc(C#N)cc1)c1cc(N2CCC(CN3CC[C@@H](Oc4cc(N5C6CCC5CN(c5cc(-c7ccccc7O)nnc5N)C6)ccn4)C(F)(F)C3)CC2)no1` [Compound 147, (2S,4R)-1-[(2R)-2-[3-(4-{[(4R)-4-[(4-{3-[3-amino-6-(2-hydroxyphenyl)pyridazin-4-yl]-3,8-diazabicyclo[3.2.1]octan-8-yl}pyridin-2-yl)oxy]-3,3-difluoropiperidin-1-yl]methyl}piperidin-1-yl)-1,2-oxazol-5-yl]-3-methylbutanoyl]-N-[(1S)-1-(4-cyanophenyl)ethyl]-4-hydroxypyrrolidine-2-carboxamide]: the DC50 lay within 2.5 to 10 nM and the Dmax was > 75%. In the same order, the values of `Cc1ncsc1-c1ccc([C@H](C)NC(=O)[C@@H]2C[C@@H](O)CN2C(=O)[C@@H](c2cc(N3CCC(CN4CCC5(CC4)CC(N4C[C@H](CN6C7CCC6CN(c6cc(-c8ccccc8O)nnc6N)C7)O[C@H](C)C4)C5)CC3)no2)C(C)C)cc1` [Compound 73, (2S,4R)-1-[(2R)-2-{3-[4-({2-[(2R,6R)-2-({3-[3-amino-6-(2-hydroxyphenyl)pyridazin-4-yl]-3,8-diazabicyclo[3.2.1]octan-8-yl}methyl)-6-methylmorpholin-4-yl]-7-azaspiro[3.5]nonan-7-yl}methyl)piperidin-1-yl]-1,2-oxazol-5-yl}-3-methylbutanoyl]-4-hydroxy-N-[(1S)-1-[4-(4-methyl-1,3-thiazol-5-yl)phenyl]ethyl]pyrrolidine-2-carboxamide] are < 2.5 nM and > 75%. For `Cc1ncsc1-c1ccc([C@H](C)NC(=O)[C@@H]2C[C@@H](O)CN2C(=O)[C@H](c2cc(N3CCC(C4(N5CCC(O[C@H]6C[C@H](Oc7cc(N8C9CCC8CN(c8cc(-c%10ccccc%10O)nnc8N)C9)ccn7)C6)CC5)CC4)CC3)no2)C(C)C)cc1` [Compound 13, (2S,4R)-4-hydroxy-N-[(3S)-3-[4-(4-methyl-3,3-thiazol-5-yl)phenyl]ethyl]-3-[(2S)-3-methyl-2-{3-[4-(3-{4-[(1r,3r)-3-[(4-{3-[3-amino-6-(2-hydroxyphenyl)pyridazin-4-yl]-3,8-diazabicyclo[3.2.3]octan-8-yl}pyridin-2-yl)oxy]cyclobutoxy]piperidin-1-yl}cyclopropyl)piperidin-1-yl]-1,2-oxazol-5-yl}butanoyl]pyrrolidine-2-carboxamide], the DC50 is ≥ 30 nM. On the same count and under the same terms, the same measure for `CC(C)[C@H](C(=O)N1C[C@H](O)C[C@H]1C(=O)N[C@@H](C)c1ccc(C#N)cc1)c1cc(N2CCC(C(=O)N3CCC(O[C@H]4C[C@H](Oc5cc(N6C7CCC6CN(c6cc(-c8ccccc8O)nnc6N)C7)ccn5)C4)CC3)CC2)no1` [Compound 137, (2S,4R)-N-[(1S)-1-(4-cyanophenyl)ethyl]-4-hydroxy-1-[(2S)-3-methyl-2-[3-(4-{4-[(1r,3r)-3-[(4-{3-[3-amino-6-(2-hydroxyphenyl)pyridazin-4-yl]-3,8-diazabicyclo[3.2.1]octan-8-yl}pyridin-2-yl)oxy]cyclobutoxy]piperidine-1-carbonyl}piperidin-1-yl)-1,2-oxazol-5-yl]butanoyl]pyrrolidine-2-carboxamide]: ≥ 30 nM.

Regarding `Cc1ncsc1-c1ccc([C@H](C)NC(=O)[C@@H]2C[C@@H](O)CN2C(=O)[C@@H](c2cc(N3CCC(CN4CCC(O[C@H]5C[C@H](N6CCC(Cc7cnn(-c8cc(-c9ccccc9O)nnc8N)c7)CC6)C5)CC4)CC3)no2)C(C)C)cc1` [Compound 105, (2S,4R)-4-hydroxy-N-[(1S)-1-[4-(4-methyl-1,3-thiazol-5-yl)phenyl]ethyl]-1-[(2R)-3-methyl-2-{3-[4-({4-[(1r,3r)-3-[4-({1-[3-amino-6-(2-hydroxyphenyl)pyridazin-4-yl]-1H-pyrazol-4-yl}methyl)piperidin-1-yl]cyclobutoxy]piperidin-1-yl}methyl)piperidin-1-yl]-1,2-oxazol-5-yl}butanoyl]pyrrolidine-2-carboxamide], the DC50 was < 2.5 nM and the Dmax was > 75%. In the case of `Cc1ncsc1-c1ccc([C@H](C)NC(=O)[C@@H]2C[C@@H](O)CN2C(=O)[C@@H](c2cc(N3CCC(CN4CCC5(CC4)CC(N4CCC[C@@](O)(CN6C7CCC6CN(c6cc(-c8ccccc8O)nnc6N)C7)C4)C5)CC3)no2)C(C)C)cc1` [Compound 71, (2S,4R)-1-[(2R)-2-{3-[4-({2-[(3S)-3-({3-[3-amino-6-(2-hydroxyphenyl)pyridazin-4-yl]-3,8-diazabicyclo[3.2.1]octan-8-yl}methyl)-3-hydroxypiperidin-1-yl]-7-azaspiro[3.5]nonan-7-yl}methyl)piperidin-1-yl]-1,2-oxazol-5-yl}-3-methylbutanoyl]-4-hydroxy-N-[(1S)-1-[4-(4-methyl-1,3-thiazol-5-yl)phenyl]ethyl]pyrrolidine-2-carboxamide], the DC50 was < 2.5 nM and the Dmax was > 75%.

A word on the DC50: it is the concentration giving 50% degradation. As a reminder, the Dmax is the largest share of the target that was removed.

These data come from patent US20250059198A1, “BRM DEGRADING COMPOUNDS AND ASSOCIATED METHODS OF USE” (Arvinas Operations, Inc., priority 2021, published 2025).
